# Values quoted from earlier work, collected in patent US7354574B2, “Treatment of ocular disease” (Advanced Ocular Systems Limited, priority 2002, dated 2008).
# Conditions: administered systemically
smiles,measurement,value
C=CC[C@@H]1/C=C(\C)C[C@H](C)C[C@H](OC)[C@H]2O[C@@](O)(C(=O)C(=O)N3CCCC[C@H]3C(=O)O[C@H](/C(C)=C/[C@@H]3CC[C@@H](O)[C@H](OC)C3)[C@H](C)[C@@H](O)CC1=O)[C@H](C)C[C@@H]2OC [tacrolimus],Renal and hepatic toxicity,significant renal and hepatic toxicity
